Patent US20150133512A1, “N-ARYLTRIAZOLE COMPOUNDS AS LPAR ANTAGONISTS” (Hoffmann-La Roche Inc,, priority 2012, published 2015)
pIC50: −log10 of the molar value.

Experiments:
[1] = molecular target: human recombinant LPA1 Lysophospholipid receptor (Homo sapiens, UniProt Q92633); assay: Calcium flux assay using FLIPR, LPA1 antagonist activity; type: cell-based; details: for pIC50: ChemiScreen Calcium-optimized stable cell line, antagonist mode, inhibition of agonist-induced calcium flux
Method: (§1) Calcium Flux Assay Using Fluorometric Imaging Plate Reader (FLIPR)
Cell Culture Conditions: The ChemiScreen Calcium-optimized stable cell line containing the human recombinant LPA1 Lysophospholipid receptor was purchased from Chemicon International, Inc./Millipore. The cells were cultured in DMEM-high glucose supplemented with 10% fetal bovine serum, 2 mM glutamine, 100 U/mL penicillin/100 μg/mL streptomycin, 1× non-essential amino acids, 10 mM HEPES and 0.25 mg/mL Geneticin. Cells were harvested with trypsin-EDTA and counted using ViaCount reagent. The cell suspension volume was adjusted to 2.0×10^5 cells/mL with complete growth media. Aliquots of 50 μL were dispensed into 384 well black/clear tissue culture treated plates (BD) and the microplates were placed in a 37° C. incubator overnight. The following day plates were used in the assay.
(§2) Dye Loading and Assay: Loading Buffer (FLIPR Calcium-4, Molecular Devices) was prepared by dissolving the contents of one bottle into 100 mL Hank's Balanced Salt Solution containing 20 mM HEPES and 2.5 mM probenecid. Plates were loaded onto Biotek plate washer and growth media was removed and replaced with 20 μL of Hank's Balanced Salt Solution containing 20 mM HEPES and 2.5 mM probenecid, followed by 25 μL of Loading Buffer. The plates were then incubated for 30 minutes at 37° C.
During the incubation, test compounds were prepared by adding 90 μL of HBSS/20 mM HEPES/0.1% BSA buffer to 2 μL of serially diluted compounds. To prepare serial dilutions, 10 mM stocks of compounds were prepared in 100% DMSO.
After incubation, both the cell and “assay” plates were brought to the FLIPR and 20 μL of the diluted compounds were transferred to the cell plates by the FLIPR. Compound addition was monitored by FLIPR to detect any agonist activity of the compounds. Plates were then incubated for 30 minutes at room temperature protected from light. […] During the assay, fluorescence readings were taken simultaneously from all 384 wells of the cell plate every 1.5 seconds. Five readings were taken to establish a stable baseline, then 20 μL of sample was rapidly (30 μL/sec) and simultaneously added to each well of the cell plate. The fluorescence was continuously monitored before, during and after sample addition for a total elapsed time of 100 seconds. Responses (increase in peak fluorescence) in each well following agonist addition was determined. The initial fluorescence reading from each well, prior to ligand stimulation, was used as zero baseline value for the data from that well. The responses were expressed as % inhibition of the buffer control.

[2] = molecular target: T1, LPA3 (Homo sapiens, UniProt Q9UBY5); assay: Calcium flux assay using FLIPR, LPA3 antagonist activity; type: cell-based; details: for pIC50: antagonist activity
T1 sequence (Q9UBY5 1-353): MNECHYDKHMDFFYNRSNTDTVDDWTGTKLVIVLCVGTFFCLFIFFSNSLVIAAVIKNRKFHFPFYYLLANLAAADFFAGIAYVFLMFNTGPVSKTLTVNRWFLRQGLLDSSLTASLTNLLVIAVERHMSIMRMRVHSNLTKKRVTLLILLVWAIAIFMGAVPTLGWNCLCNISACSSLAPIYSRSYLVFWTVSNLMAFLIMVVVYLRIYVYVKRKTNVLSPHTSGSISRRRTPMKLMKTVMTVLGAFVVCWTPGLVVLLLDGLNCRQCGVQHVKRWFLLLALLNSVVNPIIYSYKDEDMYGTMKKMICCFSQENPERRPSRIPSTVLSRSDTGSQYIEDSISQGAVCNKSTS
Method: as §1, §2
During the incubation, test compounds were prepared by adding 90 μL of HBSS/20 mM HEPES/0.1% BSA buffer to 2 μL of serially diluted compounds. To prepare serial dilutions, 10 mM stocks of compounds were prepared in 100% DMSO. The compound dilution plate was set up as follows: well #1 received 29 μL of stock compound and 31 μL DMSO; wells 2-10 received 40 μL of DMSO; mixed and transferred 20 μL of solution from well #1 into well #2; continued with 1:3 serial dilutions out 10 steps; transferred 2 μL of diluted compound into duplicate wells of 384 well “assay plate” and then added the 90 μL of buffer.
After incubation, both the cell and “assay” plates were brought to the FLIPR and 20 μL of the diluted compounds were transferred to the cell plates by the FLIPR. Compound addition was monitored by FLIPR to detect any agonist activity of the compounds. Plates were then incubated for 30 minutes at room temperature protected from light. After the incubation, plates were returned to the FLIPR and 20 μL of 4.5× concentrated agonist was added to the cell plates. During the assay, fluorescence readings were taken simultaneously from all 384 wells of the cell plate every 1.5 seconds. Five readings were taken to establish a stable baseline, then 20 μL of sample was rapidly (30 μL/sec) and simultaneously added to each well of the cell plate. The fluorescence was continuously monitored before, during and after sample addition for a total elapsed time of 100 seconds. Responses (increase in peak fluorescence) in each well following agonist addition was determined. The initial fluorescence reading from each well, prior to ligand stimulation, was used as zero baseline value for the data from that well. The responses were expressed as % inhibition of the buffer control.

Sequence of human recombinant LPA1 Lysophospholipid receptor (Q92633 whole entry): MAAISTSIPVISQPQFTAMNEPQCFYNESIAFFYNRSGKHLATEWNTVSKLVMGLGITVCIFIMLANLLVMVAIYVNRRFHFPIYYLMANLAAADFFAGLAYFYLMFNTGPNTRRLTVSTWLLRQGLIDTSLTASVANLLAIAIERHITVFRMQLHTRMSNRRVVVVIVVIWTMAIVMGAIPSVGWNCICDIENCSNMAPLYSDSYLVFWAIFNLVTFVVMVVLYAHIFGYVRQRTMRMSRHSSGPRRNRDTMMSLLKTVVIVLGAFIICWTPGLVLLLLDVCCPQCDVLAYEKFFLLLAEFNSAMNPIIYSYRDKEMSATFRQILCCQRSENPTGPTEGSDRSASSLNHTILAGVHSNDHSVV

Compound	pIC50 [1]	pIC50 [2]	inhibition at 30 µM [1] [%]	inhibition at 30 µM [2] [%]
CCc1nnn(-c2ccc(-c3ccc(CC(=O)O)cc3)cc2)c1NC(=O)O[C@H](C)c1cccc(C(F)(F)F)c1 [Example 20]	4.67	4.84	58.3	72.5
C[C@@H](OC(=O)Nc1cnnn1-c1ccc(-c2ccc(CC(=O)O)cc2)cc1)c1ccccc1 [Example 22, {4′-[5-((R)-1-Phenyl-ethoxycarbonylamino)-[1,2,3]triazol-1-yl]-biphenyl-4-yl}-acetic acid]	< 4.52	< 4.52	–	–
Cc1nnn(-c2ccc(-c3cccc(C4(C(=O)O)CC4)c3)cc2)c1NC(=O)O[C@H](C)c1ccccc1 [Example 24, (R)-1-(4′-(4-Methyl-5-((1-phenylethoxy)carbonylamino)-1H-1,2,3-triazol-1-yl)biphenyl-3-yl)cyclopropanecarboxylic acid]	< 4.52	< 4.52	–	–
Cc1nnn(-c2cccc(-c3ccc(C4(C(=O)O)CC4)cc3)c2)c1NC(=O)O[C@H](C)c1ccccc1 [Example 25, 1-{3′-[4-Methyl-5-((R)-1-phenyl-ethoxycarbonylamino)-[1,2,3]triazol-1-yl]-biphenyl-4-yl}-cyclopropanecarboxylic acid]	< 4.52	< 4.52	–	–
Cc1nnn(-c2cccc(-c3ccc(CC(=O)O)cc3)c2)c1NC(=O)O[C@H](C)c1ccccc1 [Example 26, {3′-[4-Methyl-5-((R)-1-phenyl-ethoxycarbonylamino)-[1,2,3]triazol-1-yl]-biphenyl-4-yl}-acetic acid]	< 4.52	< 4.52	–	–
Cc1nnn(-c2ccc(-c3ccccc3)cc2)c1NC(=O)O[C@H](C)c1ccccc1 [Example 27, (3-Biphenyl-4-yl-5-methyl-3H-[1,2,3]triazol-4-yl)-carbamic acid (R)-1-phenyl-ethyl ester]	< 4.52	< 4.52	–	–
Cc1nnn(-c2ccc(-c3ccc(C#N)cc3)cc2)c1NC(=O)O[C@H](C)c1ccccc1 [Example 28, [3-(4′-Cyano-biphenyl-4-yl)-5-methyl-3H-[1,2,3]triazol-4-yl]-carbamic acid (R)-1-phenyl-ethyl ester]	< 4.52	< 4.52	–	–
C[C@@H](OC(=O)Nc1nncn1-c1ccc(-c2ccc(C3(C(=O)O)CC3)cc2)cc1)c1ccccc1 [Example 31, 1-{4′-[3-((R)-1-Phenyl-ethoxycarbonylamino)-[1,2,4]triazol-4-yl]-biphenyl-4-yl}-cyclopropanecarboxylic acid]	< 4.52	< 4.52	11	–
Cc1nnn(-c2ccc(C3CCC(CC(=O)O)CC3)cc2)c1NC(=O)O[C@H](C)c1ccccc1 (stereo partly drawn) [Example 34, (R)-2-(4-(4-(4-Methyl-5-((1-phenylethoxy)carbonylamino)-1H-1,2,3-triazol-1-yl)phenyl)cyclohexyl)acetic acid]	5.02	< 4.52	–	–
Cc1nnn(-c2ccc(-c3ccc(C4(C(=O)NS(C)(=O)=O)CC4)cc3)cc2)c1NC(=O)O[C@H](C)c1cccc(C(F)(F)F)c1 [Example 35, {3-[4′-(1-Methanesulfonylaminocarbonyl-cyclopropyl)-biphenyl-4-yl]-5-methyl-3H[1,2,3]triazol-4-yl}-carbamic acid (R)-1-(3-trifluoromethyl-phenyl)-ethyl ester]	5.34	5.24	–	–

Stronger by pIC50 [1], values ahead:

pIC50 [1]	pIC50 [2]	inhibition at 30 µM [1] [%]	inhibition at 30 µM [2] [%]	Compound
6.39	5.32	–	–	CCc1nnn(-c2ccc(-c3ccc(C4(C(=O)O)CC4)cc3)cc2)c1NC(=O)O[C@H](C)c1cccc(C(F)(F)F)c1 [Example 19, 1-(4′-{4-Ethyl-5-[(R)-1-(3-trifluoromethyl-phenyl)-ethoxycarbonylamino]-[1,2,3]triazol-1-yl}-biphenyl-4-yl)-cyclopropanecarboxylic acid]
7.44	< 4.52	–	22	C[C@@H](OC(=O)Nc1cnnn1-c1ccc(-c2ccc(C3(C(=O)O)CC3)cc2)cc1)c1ccccc1 [Example 21, 1-{4′-[5-((R)-1-Phenyl-ethoxycarbonylamino)-[1,2,3]triazol-1-yl]-biphenyl-4-yl}-cyclopropanecarboxylic acid]
6.10	< 4.52	80.9	–	Cc1nnn(-c2ccc(-c3ccc(C(C)(C)C(=O)O)cc3)cc2)c1NC(=O)O[C@H](C)c1ccccc1 [Example 23, 2-Methyl-2-{4′-[4-methyl-5-((R)-1-phenyl-ethoxycarbonylamino)-[1,2,3]triazol-1-yl]-biphenyl-4-yl}-propionic acid]
7.48	< 4.52	–	–	Cc1nnn(-c2ccc(-c3ccc(C4(C(=O)NS(C)(=O)=O)CC4)cc3)cc2)c1NC(=O)O[C@H](C)c1ccccc1 [Example 30, {3-[4′-(1-Methanesulfonylaminocarbonyl-cyclopropyl)-biphenyl-4-yl]-5-methyl-3H[1,2,3]triazol-4-yl}-carbamic acid (R)-1-phenyl-ethyl ester]
7.06	< 4.52	–	–	C=CCC(C(=O)O)c1ccc(-c2ccc(-n3nnc(C)c3NC(=O)O[C@H](C)c3ccccc3)cc2)cc1 (stereo partly drawn) [Example 33, (R)-2-{4′-[4-Methyl-5-(-1-phenylethoxycarbonylamino)-[1,2,3]triazol-1-yl]-biphenyl-4-yl}-pent-4-enoic acid]
